Data as given in patent US20220118124A1, “R[…]-LABELED, PHOTO-CRO[…], AND PREPARATION METHOD THEREFOR” (SNVIA CO., LTD., priority 2019, published 2022).

Assay: In vivo local retention experiment of ^131I-HAMA microgel (SPECT gamma imaging after injection into femoral muscle)
Conditions: rat
Method: An experiment was performed to confirm the distribution of ^131I and how long the ^131I-HAMA microgel was maintained at the site injected into the body. After injecting 0.2 mL of a solution of Na^131I and ^131I-HAMA microgel (1 mCi/mL) dispersed in PBS into the femoral muscle of the rat, gamma images were obtained over time with the SPECT imaging system (Infinia Hawkeye 4, GE Healthcare, USA). Within 30 minutes immediately after injection, the radioactivity at the injection site was measured with a counter per second in a dynamic mode. After 30 minutes, an image of the whole rat injected with ^131I over time was obtained in static mode, and gamma counters of major tissues such as the injection site, thyroid gland and stomach were measured.

In the case of [131I-].[Na+] [^131I solution, Na^131I], the “radiation intensity over time in vivo” value (after injection into femoral muscle) is reported as “decreased rapidly”, the “time to flow to the whole body (SPECT image)” value (intramuscular injection, 200 μCi) is reported as 30 min and the “spreading rate in the body from the injection site (dynamic imaging)” value (within 30 minutes after injection) is reported as “faster than that of the ^131I-HAMA microgel”. For the same compound, the “migration of ^131I to other tissues (gamma counts)” value (injection site, thyroid gland, stomach, bladder) was “measured in the thyroid gland, stomach, and bladder in addition to the injection site”.
